Results from the supplement of paper PMC10331698.
± gives the standard deviation of the averaged measurements.

Assays:
Assay in all cases: level (log10 ratio to DMSO vehicle control); higher = higher biomarker level / cell amount than vehicle control
Settings in all cases: in DMSO
[1] = compound: O=C(O)CCC(F)(F)C(F)(F)C(F)(F)C(F)(F)C(F)(F)F [2H,2H,3H,3H-Perfluorooctanoic acid]
Procedure: (§1)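 BioMAP Diversity Plus panel of 12 human primary cell co-culture systems (3C, 4H, LPS, SAg, BT, BF4T, BE3C, CASM3C, HDF3CGF, KF3CT, MyoF, Mphg). Compounds were added 1 h before stimulation and left for 24 h (MyoF 48 h; BT 72 h for soluble read-outs or 6 d for IgG). Biomarkers were read by ELISA, cytotoxicity by SRB, PBMC viability and proliferation by Alamar Blue. Each well value was divided by the mean of 8 DMSO control wells on the same plate and log10 transformed; duplicate blinded samples were tested at 4 concentrations.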

[2] = compound: O=S(=O)(O)C(F)(F)C(F)(F)C(F)(F)C(F)(F)F [Perfluorobutanesulfonic acid]
Procedure: as §1

[3] = compound: OCC(F)(F)C(F)(F)C(F)(F)C(F)(F)C(F)(F)C(F)F [1H,1H,7H-Dodecafluoro-1-heptanol]
Procedure: as §1

Test System | level (log10) ([1]; 6700 nM) | level (log10) ([1]; 20000 nM) | level (log10) ([1]; 60000 nM) | level (log10) ([2]; 6700 nM) | level (log10) ([2]; 20000 nM) | level (log10) ([2]; 60000 nM) | level (log10) ([3]; 6700 nM) | level (log10) ([3]; 20000 nM) | level (log10) ([3]; 60000 nM)
MyoF:Collagen I | 0.013 ± 0.0014 | -0.0005 ± 0.0064 | 0.0055 ± 0.018 | -0.017 ± 0.023 | -0.004 ± 0.0014 | -0.0235 ± 0.0064 | 0.0055 ± 0.012 | -0.0175 ± 0.018 | 0.003 ± 0.023
MyoF:Collagen III | -0.021 ± 0.023 | -0.026 ± 0.024 | -0.0115 ± 0.022 | 0.02 ± 0.024 | 0.0265 ± 0.0064 | 0.0145 ± 0.0064 | -0.0095 ± 0.0035 | -0.012 | -0.015 ± 0.0071
MyoF:Collagen IV | -0.009 ± 0.021 | -0.0075 ± 0.026 | 0.0115 ± 0.023 | 0.04 ± 0.0057 | 0.0055 ± 0.033 | 0.016 ± 0.013 | -0.0115 ± 0.015 | -0.0025 ± 0.018 | 0.011 ± 0.025
MyoF:Decorin | -0.0075 ± 0.0021 | -0.0065 ± 0.00071 | 0.019 ± 0.0071 | 0.0315 ± 0.012 | 0.03 ± 0.016 | 0.083 ± 0.013 | -0.0105 ± 0.00071 | -0.0005 ± 0.036 | -0.017 ± 0.021
MyoF:MMP-1 | -0.017 ± 0.041 | -0.044 ± 0.0099 | -0.007 ± 0.033 | 0.0385 ± 0.005 | 0.065 ± 0.0071 | 0.0885 ± 0.0035 | -0.025 ± 0.035 | -0.029 ± 0.021 | -0.0015 ± 0.012
MyoF:PAI-I | -0.009 ± 0.0028 | -0.0155 ± 0.005 | -0.0025 ± 0.005 | -0.011 ± 0.013 | 0.0065 ± 0.0078 | 0.0005 ± 0.0064 | -0.0045 ± 0.013 | -0.0015 ± 0.011 | 0.007 ± 0.0057
MyoF:SRB | -0.002 ± 0.0057 | -0.0035 ± 0.0064 | -0.0065 ± 0.015 | -0.002 ± 0.0071 | -0.0035 ± 0.00071 | 0.0085 ± 0.00071 | 0.001 ± 0.0085 | -0.0025 ± 0.00071 | -0.007 ± 0.0085
MyoF:TIMP-1 | -0.035 ± 0.088 | -0.0365 ± 0.087 | -0.0155 ± 0.071 | 0.012 ± 0.014 | 0.009 ± 0.0085 | 0.0205 ± 0.00071 | -0.013 ± 0.018 | -0.0025 ± 0.023 | -0.0065 ± 0.046
MyoF:alpha-SM Actin | 0.048 ± 0.024 | 0.017 ± 0.013 | 0.0205 ± 0.061 | -0.016 ± 0.0099 | -0.0265 ± 0.0078 | -0.0195 ± 0.005 | -0.012 ± 0.0014 | 0.0015 ± 0.005 | -0.0115 ± 0.011
MyoF:bFGF | -0.013 ± 0.017 | -0.011 ± 0.0085 | -0.008 ± 0.021 | 0.0065 ± 0.013 | 0.0105 ± 0.018 | -0.0065 ± 0.0064 | 0.0085 ± 0.0064 | 0.0065 ± 0.015 | 0.0065 ± 0.013
lMphg:CCL2/MCP-1 | 0.007 ± 0.016 | -0.0115 ± 0.005 | -0.01 | 0.0105 ± 0.0021 | 0.0105 ± 0.0078 | 0.0145 ± 0.025 | -0.011 ± 0.014 | -0.009 ± 0.024 | 0.0115 ± 0.035
lMphg:CCL3/MIP-1alpha | 0.032 ± 0.052 | 0.0625 ± 0.081 | 0.0765 ± 0.053 | -0.0305 ± 0.016 | -0.0395 ± 0.005 | -0.0135 ± 0.0092 | 0.0185 ± 0.063 | 0.0115 ± 0.019 | 0.044 ± 0.0085
lMphg:CD40 | -0.0205 ± 0.039 | -0.0235 ± 0.04 | -0.05 ± 0.041 | -0.0015 ± 0.0064 | -0.0065 ± 0.0021 | 0.009 ± 0.0014 | -0.047 ± 0.082 | -0.0425 ± 0.047 | -0.061 ± 0.071
lMphg:CD62E/E-Selectin | 0.0015 ± 0.035 | 0.0165 ± 0.0064 | 0.0415 ± 0.00071 | 0.0405 ± 0.0035 | 0.041 ± 0.044 | 0.0215 ± 0.046 | -0.0295 ± 0.025 | -0.0265 ± 0.0035 | 0.001 ± 0.048
lMphg:CD69 | -0.032 ± 0.05 | -0.0325 ± 0.063 | -0.016 ± 0.031 | 0.0035 ± 0.005 | -0.0195 ± 0.005 | -0.0525 ± 0.043 | -0.0275 ± 0.0021 | -0.0305 ± 0.0064 | -0.018 ± 0.075
lMphg:CD106/VCAM-1 | -0.0135 ± 0.0092 | -0.022 ± 0.023 | -0.011 ± 0.021 | -0.004 ± 0.025 | -0.013 ± 0.018 | -0.0195 ± 0.0078 | -0.0115 ± 0.042 | -0.015 ± 0.037 | -0.027 ± 0.047
lMphg:CXCL8/IL-8 | -0.017 ± 0.023 | 0.066 ± 0.04 | 0.115 ± 0.018 | 0.022 ± 0.0028 | 0.06 ± 0.0085 | 0.183 ± 0.0099 | -0.003 ± 0.013 | 0.017 ± 0.025 | 0.042 ± 0.028
lMphg:IL-1alpha | 0.03 ± 0.028 | 0.0675 ± 0.071 | 0.129 ± 0.067 | 0.0315 ± 0.016 | -0.0055 ± 0.056 | 0.034 ± 0.031 | -0.0255 ± 0.056 | -0.0275 ± 0.079 | -0.0735 ± 0.18
lMphg:M-CSF | -0.0155 ± 0.0021 | 0.0035 ± 0.0064 | -0.046 ± 0.014 | 0.021 ± 0.028 | -0.0045 ± 0.074 | -0.0045 ± 0.07 | -0.0115 ± 0.005 | -0.0035 ± 0.0078 | 0.0085 ± 0.044
lMphg:SRB | -0.0025 ± 0.0035 | 0.001 ± 0.0014 | 0.007 ± 0.0085 | 0.002 ± 0.013 | -0.0155 ± 0.011 | -0.0155 ± 0.0064 | -0.018 ± 0.028 | 0.0015 ± 0.005 | -0.0025 ± 0.00071
lMphg:SRB-Mphg | 0.0115 ± 0.0035 | 0.0065 ± 0.015 | 0.007 ± 0.017 | 0.01 ± 0.018 | 0.0045 ± 0.015 | -0.0005 ± 0.012 | -0.028 ± 0.095 | -0.046 ± 0.0085 | 0.0615 ± 0.052
lMphg:sIL-10 | -0.073 ± 0.0085 | -0.043 | -0.216 ± 0.011 | 0.043 ± 0.099 | -0.0475 ± 0.032 | 0.0065 ± 0.049 | 0.0085 ± 0.11 | -0.006 ± 0.031 | 0.0485 ± 0.0078
